Laboratory results taken from US10028960B2, “Pyrimidine compounds as JAK kinase inhibitors” (THERAVANCE BIOPHARMA R&D IP, LLC, priority 2016, dated 2018).

What was measured:
JAK1 = JAK1 (Homo sapiens (Human), UniProt P23458); experiment: LanthaScreen JAK biochemical assay, JAK1; conditions: for Ki: read-out: JAK 1 (pKi) (converted)
Method: A panel of four LanthaScreen JAK biochemical assays (JAK1, 2, 3 and Tyk2) were carried in a common kinase reaction buffer (50 mM HEPES, pH 7.5, 0.01% Brij-35, 10 mM MgCl2, and 1 mM EGTA). Recombinant GST-tagged JAK enzymes and a GFP-tagged STAT1 peptide substrate were obtained from Life Technologies.

[1] = tested on: IL-13 induced STAT6 phosphorylation in HT-29 human colorectal adenocarcinoma cells; experiment: Cellular JAK potency assay: inhibition of IL-13 induced STAT6 phosphorylation; assay type: cell-based; conditions: IL-13 induced STAT6 phosphorylation, HT-29 cells; for IC50: Homo sapiens, read-out: HT-29 (pIC50) (converted)
Method: The potency of test compounds for inhibition of the JAK-dependent cytokine interleuken-13 (IL-13) was assessed by measuring IL-13 (IL-13, R&D Systems) induced STAT6 phosphorylation in HT-29 human colorectal adenocarcinoma cells (ATCC).
The anti-STAT6 antibody (Cell Signaling Technologies) was conjugated to AlphaScreen acceptor beads (Perkin Elmer), while the anti-pSTAT6 (pTyr641) antibody (Cell Signaling Technologies) was biotinylated using EZ-Link Sulfo-NHS-Biotin (Thermo Scientific).
HT-29 cells were grown at 37° C. in a 5% CO2 humidified incubator in McCoy's 5a Modified medium (ATCC) supplemented with 10% FBS (Hyclone), 100 U/mL penicillin, 100 μg/mL streptomycin (Life Technologies), and 2 mM GlutaMAX (Life Technologies). On day 1 of the assay, cells were seeded at a 7,500 cells/well density in white poly-D-lysine-coated 384-well plates (Corning) with 25 μL medium, and were allowed to adhere overnight in the incubator. On day 2 of the assay, the medium was removed and replaced with 12 μL of assay buffer (Hank's Balanced Salt Solution/HBSS, 25 mM HEPES, and 1 mg/ml bovine serum albumin/BSA) containing dose-responses of test compounds. Compounds were serially diluted in DMSO and then diluted another 1000-fold in media to bring the final DMSO concentration to 0.1%. Cells were incubated with test compounds at 37° C. for 1 h, and followed by the addition of 12 μL of pre-warmed IL-13 (12 ng/ml in assay buffer) for stimulation. After incubating at 37° C. for 30 min, the assay buffer (containing compound and IL-13) was removed, and 10 μL of cell lysis buffer (25 mM HEPES, 0.1% SDS, 1% NP-40, 5 mM MgCl2, 1.3 mM EDTA, 1 mM EGTA, and supplement with Complete Ultra mini protease inhibitors and PhosSTOP from Roche Diagnostics). The plates were shaken at ambient temperature for 30 min before the addition of detection reagents. A mixture of biotin-anti-pSTAT6 and anti-STAT6 conjugated acceptor beads was added first and incubated at ambient temperature for 2 h, followed by the addition of streptavidin conjugated donor beads (Perkin Elmer). After a minimum of 2 h incubation, the assay plates were read on the EnVision plate reader.
Results were expressed as the negative logarithm of the IC50 value, pIC50.

Chain of JAK1 (P23458 whole entry): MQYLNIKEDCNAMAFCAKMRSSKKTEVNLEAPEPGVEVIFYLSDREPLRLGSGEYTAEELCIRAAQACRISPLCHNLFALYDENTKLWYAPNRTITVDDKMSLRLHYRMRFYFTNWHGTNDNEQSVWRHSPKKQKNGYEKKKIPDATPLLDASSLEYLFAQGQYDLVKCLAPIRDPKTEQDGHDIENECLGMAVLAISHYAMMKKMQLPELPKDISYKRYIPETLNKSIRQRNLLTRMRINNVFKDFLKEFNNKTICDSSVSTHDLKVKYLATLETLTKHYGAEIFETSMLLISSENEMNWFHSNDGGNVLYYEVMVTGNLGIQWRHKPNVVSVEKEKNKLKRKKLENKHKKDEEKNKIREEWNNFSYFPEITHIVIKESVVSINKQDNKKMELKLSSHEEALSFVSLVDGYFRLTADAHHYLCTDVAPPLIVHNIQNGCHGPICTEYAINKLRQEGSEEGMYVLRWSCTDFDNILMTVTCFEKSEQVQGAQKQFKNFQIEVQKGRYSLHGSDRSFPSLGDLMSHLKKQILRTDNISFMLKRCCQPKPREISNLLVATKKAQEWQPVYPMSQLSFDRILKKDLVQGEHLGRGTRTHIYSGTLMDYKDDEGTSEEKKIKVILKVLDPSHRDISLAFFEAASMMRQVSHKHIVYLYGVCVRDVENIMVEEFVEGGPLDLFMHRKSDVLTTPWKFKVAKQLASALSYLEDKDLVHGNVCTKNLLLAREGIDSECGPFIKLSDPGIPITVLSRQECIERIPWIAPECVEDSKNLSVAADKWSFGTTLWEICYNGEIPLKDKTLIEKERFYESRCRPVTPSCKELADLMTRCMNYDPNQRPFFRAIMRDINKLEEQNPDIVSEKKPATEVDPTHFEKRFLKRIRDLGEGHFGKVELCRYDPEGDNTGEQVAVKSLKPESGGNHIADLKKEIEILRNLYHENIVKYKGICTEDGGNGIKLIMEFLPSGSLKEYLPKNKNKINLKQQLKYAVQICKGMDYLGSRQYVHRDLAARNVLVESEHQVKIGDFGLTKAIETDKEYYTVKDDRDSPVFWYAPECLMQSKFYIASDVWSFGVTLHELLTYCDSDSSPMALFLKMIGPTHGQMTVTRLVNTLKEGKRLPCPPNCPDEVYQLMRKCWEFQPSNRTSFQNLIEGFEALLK

Compound	Ki (JAK1) [nM]	IC50 [1] [nM]	JAK 1 (pKi) (JAK1)	HT-29 (pIC50) [1]
COc1cc(Nc2cc(CO)[nH]n2)nc(N[C@@H]2C[C@H]3CC[C@@H](C2)N3S(=O)(=O)N2CCC2)n1 [Example 1-1]	1 to 10	31.6 to 200	–	–
COc1cc(Nc2cc(CO)[nH]n2)nc(N[C@@H]2C[C@H]3CC[C@@H](C2)N3S(=O)(=O)N2CC(C#N)C2)n1 [Example 1-2]	0.1 to 1	200 to 1000	–	–
COc1cc(Nc2cc(CO)[nH]n2)nc(N[C@@H]2C[C@H]3CC[C@@H](C2)N3S(=O)(=O)c2cccnc2)n1 [Example 1-3]	1 to 10	200 to 1000	–	–
COc1cc(Nc2cc(CO)[nH]n2)nc(N[C@@H]2C[C@H]3CC[C@@H](C2)N3S(=O)(=O)c2ccccc2)n1 [Example 1-4]	10 to 31.6	–	–	–
COc1cc(Nc2cc(CO)[nH]n2)nc(N[C@@H]2C[C@H]3CCC[C@@H](C2)N3S(=O)(=O)N2CCC2)n1 [Example 1-5, (3-((2-(((1R,3s,5S)-9-(azetidin-1-ylsulfonyl)-9-azabicyclo[3.3.1]nonan-3-yl)amino)-6-methoxypyrimidin-4-yl)amino)-1H-pyrazol-5-yl)methanol]	–	–	B (B represents a pKi value between 9 and 10 (Ki between 1 nM and 0.1 nM))	B (B represents a pIC50 value between 6.7 and 7.5 (IC50 between 200 nM and 32 nM))
COc1cc(Nc2cc(CO)[nH]n2)nc(N[C@@H]2C[C@H]3CCC[C@@H](C2)N3S(=O)(=O)N2CC(C#N)C2)n1 [Example 1-6, 1-(((1R,3s,5S)-3-((4-((5-(hydroxymethyl)-1H-pyrazol-3-yl)amino)-6-methoxypyrimidin-2-yl)amino)-9-azabicyclo[3.3.1]nonan-9-yl)sulfonyl)azetidine-3-carbonitrile]	–	–	A (A represents a pKi value≥10 (Ki≤0.1 nM))	B (B represents a pIC50 value between 6.7 and 7.5 (IC50 between 200 nM and 32 nM))
COc1cc(Nc2cc(CO)[nH]n2)nc(N[C@@H]2C[C@H]3CCC[C@@H](C2)N3S(=O)(=O)c2cncc(F)c2)n1 [Example 1-7, (3-((2-(((1R,3s,5S)-9-((5-fluoropyridin-3-yl)sulfonyl)-9-azabicyclo[3.3.1]nonan-3-yl)amino)-6-methoxypyrimidin-4-yl)amino)-1H-pyrazol-5-yl)methanol]	–	–	B (B represents a pKi value between 9 and 10 (Ki between 1 nM and 0.1 nM))	–
COc1cc(Nc2cc(CO)[nH]n2)nc(N[C@@H]2C[C@H]3CCC[C@@H](C2)N3S(=O)(=O)c2ccccc2)n1 [Example 1-8, (3-((6-methoxy-2-(((1R,3s,5S)-9-(phenylsulfonyl)-9-azabicyclo[3.3.1]nonan-3-yl)amino)pyrimidin-4-yl)amino)-1H-pyrazol-5-yl)methanol]	–	–	A (A represents a pKi value≥10 (Ki≤0.1 nM))	A (A represents a pIC50 value≥7.5 (IC50≤32 nM))
CCS(=O)(=O)N1[C@@H]2CCC[C@H]1C[C@H](Nc1nc(Nc3cc(CO)[nH]n3)cc(OC)n1)C2 [Example 1-9, (3-((2-(((1R,3s,5S)-9-(ethylsulfonyl)-9-azabicyclo[3.3.1]nonan-3-yl)amino)-6-methoxypyrimidin-4-yl)amino)-1H-pyrazol-5-yl)methanol]	–	–	B (B represents a pKi value between 9 and 10 (Ki between 1 nM and 0.1 nM))	B (B represents a pIC50 value between 6.7 and 7.5 (IC50 between 200 nM and 32 nM))
COc1cc(Nc2cc(CO)[nH]n2)nc(N[C@@H]2C[C@H]3CCC[C@@H](C2)N3S(=O)(=O)CC2CC2)n1 [Example 1-10, (3-((2-(((1R,3s,5S)-9-((cyclopropylmethyl)sulfonyl)-9-azabicyclo[3.3.1]nonan-3-yl)amino)-6-methoxypyrimidin-4-yl)amino)-1H-pyrazol-5-yl)methanol]	–	–	B (B represents a pKi value between 9 and 10 (Ki between 1 nM and 0.1 nM))	–
COc1cc(Nc2cc(CO)[nH]n2)nc(N[C@@H]2C[C@H]3CCC[C@@H](C2)N3S(=O)(=O)c2cccnc2)n1 [Example 1-11, (3-((6-methoxy-2-(((1R,3s,5S)-9-(pyridin-3-ylsulfonyl)-9-azabicyclo[3.3.1]nonan-3-yl)amino)pyrimidin-4-yl)amino)-1H-pyrazol-5-yl)methanol]	–	–	B (B represents a pKi value between 9 and 10 (Ki between 1 nM and 0.1 nM))	B (B represents a pIC50 value between 6.7 and 7.5 (IC50 between 200 nM and 32 nM))
COc1cc(Nc2cc(CO)[nH]n2)nc(N(C)[C@@H]2C[C@H]3CCC[C@@H](C2)N3S(=O)(=O)CC2CC2)n1 [Example 1-18, (3-((2-(((1R,3s,5S)-9-((cyclopropylmethyl)sulfonyl)-9-azabicyclo[3.3.1]nonan-3-yl)(methyl)amino)-6-methoxypyrimidin-4-yl)amino)-1H-pyrazol-5-yl)methanol]	–	–	B (B represents a pKi value between 9 and 10 (Ki between 1 nM and 0.1 nM))	–
COc1cc(Nc2cc(CO)[nH]n2)nc(N(C)[C@@H]2C[C@H]3CCC[C@@H](C2)N3S(=O)(=O)c2cncc(F)c2)n1 [Example 1-19, (3-((2-(((1R,3s,5S)-9-((5-fluoropyridin-3-yl)sulfonyl)-9-azabicyclo[3.3.1]nonan-3-yl)(methyl)amino)-6-methoxypyrimidin-4-yl)amino)-1H-pyrazol-5-yl)methanol]	–	–	B (B represents a pKi value between 9 and 10 (Ki between 1 nM and 0.1 nM))	A (A represents a pIC50 value≥7.5 (IC50≤32 nM))
COc1cc(Nc2cc(CO)[nH]n2)nc(N[C@@H]2C[C@H]3CC[C@@H](C2)N3Cc2ccncc2)n1 [Example 2-1]	–	–	C (C represents a pKi value between 8 and 9 (Ki between 10 nM and 1 nM))	C (C represents a pIC50 value between 6 and 6.7 (IC50 between 1 μM and 200 nM))
COc1cc(Nc2cc(CO)[nH]n2)nc(N[C@@H]2C[C@H]3CCC[C@@H](C2)N3Cc2ccncc2)n1 [Example 2-2]	–	–	B (B represents a pKi value between 9 and 10 (Ki between 1 nM and 0.1 nM))	B (B represents a pIC50 value between 6.7 and 7.5 (IC50 between 200 nM and 32 nM))
COc1cc(Nc2cc(CO)[nH]n2)nc(N[C@@H]2C[C@H]3CCC[C@@H](C2)N3Cc2ccnc(C#N)c2)n1 [Example 2-3, 4-(((1R,3s,5S)-3-((4-((5-(hydroxymethyl)-1H-pyrazol-3-yl)amino)-6-methoxypyrimidin-2-yl)amino)-9-azabicyclo[3.3.1]nonan-9-yl)methyl)picolinonitrile]	–	–	B (B represents a pKi value between 9 and 10 (Ki between 1 nM and 0.1 nM))	B (B represents a pIC50 value between 6.7 and 7.5 (IC50 between 200 nM and 32 nM))
COc1cc(Nc2cc(CO)[nH]n2)nc(N[C@@H]2C[C@H]3CCC[C@@H](C2)N3Cc2cccnc2)n1 [Example 2-4, (3-((6-methoxy-2-(((1R,3s,5S)-9-(pyridin-3-ylmethyl)-9-azabicyclo[3.3.1]nonan-3-yl)amino)pyrimidin-4-yl)amino)-1H-pyrazol-5-yl)methanol]	–	–	B (B represents a pKi value between 9 and 10 (Ki between 1 nM and 0.1 nM))	B (B represents a pIC50 value between 6.7 and 7.5 (IC50 between 200 nM and 32 nM))
COc1cc(Nc2cc(CO)[nH]n2)nc(N[C@@H]2C[C@H]3CCC[C@@H](C2)N3C(=O)C(F)F)n1 [Example 3-1, 2,2-difluoro-1-((1R,3s,5S)-3-((4-((5-(hydroxymethyl)-1H-pyrazol-3-yl)amino)-6-methoxypyrimidin-2-yl)amino)-9-azabicyclo[3.3.1]nonan-9-yl)ethan-1-one]	–	–	B (B represents a pKi value between 9 and 10 (Ki between 1 nM and 0.1 nM))	–
COc1cc(Nc2cc(CO)[nH]n2)nc(N[C@@H]2C[C@H]3CCC[C@@H](C2)N3Cc2ccc(C#N)nc2)n1 [Example 6, 5-(((1R,3s,5S)-3-((4-((5-(hydroxymethyl)-1H-pyrazol-3-yl)amino)-6-methoxypyrimidin-2-yl)amino)-9-azabicyclo[3.3.1]nonan-9-yl)methyl)picolinonitrile]	0.1 to 1	–	–	–
COc1cc(Nc2cc(CO)[nH]n2)nc(N(C)C2C[C@H]3CCC[C@@H](C2)N3C(=O)C(F)F)n1 (stereo partly drawn) [Example 9, 2,2-difluoro-1-((1R,3s,5S)-3-((4-((5-(hydroxymethyl)-1H-pyrazol-3-yl)amino)-6-methoxypyrimidin-2-yl)(methyl)amino)-9-azabicyclo[3.3.1]nonan-9-yl)ethan-1-one]	–	31.6 to 200	–	–
